# Source: ChEMBL document CHEMBL5614451, “Structure-Activity Relationship of Oxacyclo- and Triazolo-Containing Respiratory Syncytial Virus Polymerase Inhibitors” (ACS Med Chem Lett, 2024)
# Key:
# [1] = tested on: Respiratory syncytial virus; experiment: Antiviral activity against RSV; assay type: functional, organism-based; details: human respiratory syncytial virus
# [2] = Inhibition of RSV RdRp L/P; design: species or system Respiratory syncytial virus
# [3] = Cytotoxicity against human HeLa cells incubated for 3 days by ATPlite analysis; assay type: toxicity, cell-based; details: time 3 day
# [4] = Intrinsic clearance in rat liver microsome at 1 uM preincubated for 5 mins followed by NADPH addition measured upto 60 mins by LC-MS/MS analysis; assay type: ADME; details: liver microsomes, time 65 min, read-out: CLH
# [5] = Inhibition of RSV RdRp L/P measured after 120 mins by SPA; design: species or system Respiratory syncytial virus
# [6] = Intrinsic clearance in human liver microsome at 1 uM preincubated for 5 mins followed by NADPH addition measured upto 60 mins by LC-MS/MS analysis; assay type: ADME; details: liver microsomes, time 65 min, read-out: CLH
# [7] = tested on: Respiratory syncytial virus; experiment: Antiviral activity against RSV A2 expressing e-GFP infected in human HeLa cells incubated for 3 days by […]; assay type: functional, organism-based; details: 72 h
SMILES,EC50 [1] [nM],IC50 [2] [nM],CC50 at 72 h [3] [µM],microsomal CLint at 1 µM [4] [µL/min/mg],IC50 [5] [nM],microsomal CLint at 1 µM [6] [µL/min/mg],EC50 [7] [nM]
COc1cc(C(=O)NC[C@](O)(c2cc(C(C)(C)O)c(F)c(-c3ccc(F)cc3)n2)C(F)(F)F)cc2cc(C)nnc12,0.38,0.29,–,–,–,–,–
COc1cc(-c2cn(CC3(c4cc(C(C)(C)O)c(F)c(-c5ccc(F)cc5)n4)CCO3)nn2)cc2cccnc12 (stereo unspecified),–,–,23.6,42.7,4.1,54.2,10
COc1cc(C(=O)NCC(O)(c2cc(C(C)(C)O)c(F)c(-c3ccc(F)cc3)n2)C(F)(F)F)cc2cccnc12 (stereo unspecified),–,–,16,168,0.63,12.1,11
COc1cc(C(=O)NCC2(c3cc(C(C)(C)O)c(F)c(-c4ccc(F)cc4)n3)CC(=O)CO2)cc2cc(C)nnc12 (stereo unspecified),–,–,> 5,–,2.5,126,18
COc1cc(-c2cn(CC(=O)c3cc(C(C)(C)O)c(F)c(-c4ccc(F)cc4)n3)nn2)cc2cccnc12,–,–,> 50,10.8,77,14.3,200
COc1cc(C(=O)NCC2(c3cc(C(C)(C)O)c(F)c(-c4ccc(F)cc4)n3)CC(O)CO2)cc2cc(C)nnc12 (stereo unspecified),–,–,> 5,–,1.9,14.6,17
COc1cc(C(=O)NCC(=O)c2cc(C(C)(C)O)c(F)c(-c3ccc(F)cc3)n2)cc2cc(C)nnc12,–,–,31,–,3.4,9.5,6.5
COc1cc(-c2cn(C[C@](O)(c3cc(C(C)(C)O)c(F)c(-c4ccc(F)cc4)n3)C(F)(F)F)nn2)cc2cccnc12,–,–,13,< 7.7,16,< 7.7,74
COc1cc(C(=O)NCC2(c3cc(C(C)(C)O)c(F)c(-c4ccc(F)cc4)n3)OCCO2)cc2cc(C)nnc12,–,–,> 50,–,0.25,13.3,1.2
COc1cc(C(=O)NCC2(c3cc(C(C)(C)O)c(F)c(-c4ccc(F)cc4)n3)OCCC23CC3)cc2cc(C)nnc12 (stereo unspecified),–,–,> 5,–,0.55,> 347,0.41
COc1cc(C(=O)NCC2(c3cc(C(C)(C)O)c(F)c(-c4ccc(F)cc4)n3)CCCO2)cc2cc(C)nnc12 (stereo unspecified),–,–,18,–,0.8,> 20,0.73
COc1cc(C(=O)NCC2(c3cc(C(C)(C)O)c(F)c(-c4ccc(F)cc4)n3)CC(F)(F)CO2)cc2cc(C)nnc12 (stereo unspecified),–,–,> 5,–,0.78,117,2.3
COc1cc(C(=O)NCC2(c3cc(C(C)(C)O)c(F)c(-c4ccc(F)cc4)n3)CCCCO2)cc2cc(C)nnc12 (stereo unspecified),–,–,> 25,–,44,> 347,170
COc1cc(-c2cn(CC3(c4cc(C(C)(C)O)c(F)c(-c5ccc(F)cc5)n4)CCCO3)nn2)cc2cccnc12 (stereo unspecified),–,–,> 5,–,22,> 347,108
COc1cc(C(=O)NCC2(c3cc(C(C)(C)O)c(F)c(-c4ccc(F)cc4)n3)OCCC2=O)cc2cc(C)nnc12 (stereo unspecified),–,–,> 5,–,0.1,110,0.22
COc1cc(C(=O)NCC2(c3cc(C(C)(C)O)c(F)c(-c4ccc(F)cc4)n3)OCCC2O)cc2cc(C)nnc12 (stereo unspecified),–,–,> 5,–,1.9,18.4,0.13
